What was measured:
Sclerostin = target: T1, Sclerostin (Homo sapiens, UniProt Q9BQB4); assay: luciferase Wnt pathway activity assay (inhibition of sclerostin by restoration of Wnt signaling); format: cell-based; conditions: for identified as promoting bone growth (Wnt signaling / inhibition of sclerostin): human cells, luciferase Wnt pathway activity; for concentration at which compound inhibits sclerostin and restores normal Wnt activity (RLU): human embryonic cells, luciferase RLU, p<0.05
T1 construct: host or cells: human cells (reporter cells)
T1 sequence (Q9BQB4 24-213): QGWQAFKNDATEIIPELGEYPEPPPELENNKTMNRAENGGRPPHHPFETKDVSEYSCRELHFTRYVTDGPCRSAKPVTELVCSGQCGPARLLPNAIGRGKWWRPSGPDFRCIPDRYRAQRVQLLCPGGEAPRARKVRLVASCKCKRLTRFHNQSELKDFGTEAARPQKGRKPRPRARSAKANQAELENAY
Method: (§1) The Y axis represents Relative Light Units (RLU) which represents Wnt pathway signaling. Addition of Wnt (W) activates the Wnt pathway, while addition of Sclerostin (S) inhibits the Wnt pathway. Addition of Compound 1 inhibits sclerostin and restores normal Wnt activity at 3 μM. Asterisks represent statistically significant p<0.05.
as §1, with “2” for “1”, “10” for “3”
Briefly, human cells are treated with a predetermined dose of a candidate compound for a complete dosing schedule. Control vehicle treated cells are treated with a control solution, preferably a non-irritating buffer solution or other carrier. Once the dosing schedule has been completed, both test and control assays are examined for luciferase Wnt pathway activity to determine the quantity of Wnt signaling and thus inhibition of sclerostin.
Bars marked with a double asterisk indicate a significant difference as compared to S, but not as compared to W. Concentrations are indicated along the X axis in micromolar values.
Concentrations are indicated along the X axis in micromolar values.

osteocalcin (OCN) = assay: Bone formation assay: osteocalcin (OCN) ELISA in cells treated with sclerostin and compound; format: cell-based, human
From the text: Bone formation can be assayed in vitro or in vivo using a serum marker for bone formation, osteocalcin (OCN). OCN is commercially available, e.g., from Biomedical Technologies, Inc. (Stoughton, Mass.). In one exemplary assay, using the manufacturer's protocol for the mouse osteocalcin EIA kit (described at http://www.btiinc.com/page/cata2/html#mouse_osteocalcin) bone formation in cells such as MC3T3 osteoblast cells can be assayed by measuring the concentration of OCN. An ELISA assay followed by spectrophotometer optical density (OD) readings to measure the concentration of OCN is used to detect the level of OCN secreted from cells, e.g., cells treated with a vehicle control, a sclerostin control, or with a combination of sclerostin and a compound as described herein. In some embodiments, the cells are treated with increasing doses of the control or compound.
Compound 2 was added in increasing amounts (0.13 μM-100 μM) with sclerostin at 1/8 volume.

Cc1nc(O)cc2c1[nH]c1ccccc12 [Compound 1, 3-hydroxy-1-methyl-9H-pyrido[3,4-b]indole]
identified as promoting bone growth (Wnt signaling / inhibition of sclerostin) (Sclerostin): identified as promoting bone growth
concentration at which compound inhibits sclerostin and restores normal Wnt activity (RLU) (Sclerostin): 3 µM

COc1ccc(-c2nccc3c2[nH]c2ccccc23)cc1 [Compound 2, 1-(4-methoxyphenyl)-9H-pyrido[3,4-b]indole]
identified as promoting bone growth (Wnt signaling / inhibition of sclerostin) (Sclerostin): identified as promoting bone growth
concentration at which compound inhibits sclerostin and restores normal Wnt activity (RLU) (Sclerostin): 10 µM
effect on OCN induction blocked by sclerostin (osteocalcin (OCN); 0.13 μM-100 μM compound with sclerostin at 1/8 volume): restoration of OCN activity that was blocked by sclerostin
stimulation of bone formation marker OCN versus vehicle-treated cells with No Sclerostin (NS) (osteocalcin (OCN); 20 μM compound with Sclerostin at 1/8 volume): stimulation of OCN well over that of the vehicle-treated cells
